Earlier results as cited in publication PMC9851200, “Multiparameter phenotypic screening for endogenous TFEB and TFE3 translocation identifies novel chemical series modulating lysosome function” (Autophagy, 2022).

Columns and labels:
Parameters in all cases: method as in original PKIS2 published data
[1] = target: kinases (KINOMEscan panel) (Homo sapiens, UniProt P14616); conditions: INSRR; Published KINOMEscan; ref original PKIS2 published data; cited from earlier work
[2] = target: kinases (KINOMEscan panel) (Homo sapiens, UniProt P35590); conditions: TIE1; Published KINOMEscan; ref original PKIS2 published data; cited from earlier work
Chain of kinases (KINOMEscan panel) (Homo sapiens, UniProt P35590) (P35590 22-1138): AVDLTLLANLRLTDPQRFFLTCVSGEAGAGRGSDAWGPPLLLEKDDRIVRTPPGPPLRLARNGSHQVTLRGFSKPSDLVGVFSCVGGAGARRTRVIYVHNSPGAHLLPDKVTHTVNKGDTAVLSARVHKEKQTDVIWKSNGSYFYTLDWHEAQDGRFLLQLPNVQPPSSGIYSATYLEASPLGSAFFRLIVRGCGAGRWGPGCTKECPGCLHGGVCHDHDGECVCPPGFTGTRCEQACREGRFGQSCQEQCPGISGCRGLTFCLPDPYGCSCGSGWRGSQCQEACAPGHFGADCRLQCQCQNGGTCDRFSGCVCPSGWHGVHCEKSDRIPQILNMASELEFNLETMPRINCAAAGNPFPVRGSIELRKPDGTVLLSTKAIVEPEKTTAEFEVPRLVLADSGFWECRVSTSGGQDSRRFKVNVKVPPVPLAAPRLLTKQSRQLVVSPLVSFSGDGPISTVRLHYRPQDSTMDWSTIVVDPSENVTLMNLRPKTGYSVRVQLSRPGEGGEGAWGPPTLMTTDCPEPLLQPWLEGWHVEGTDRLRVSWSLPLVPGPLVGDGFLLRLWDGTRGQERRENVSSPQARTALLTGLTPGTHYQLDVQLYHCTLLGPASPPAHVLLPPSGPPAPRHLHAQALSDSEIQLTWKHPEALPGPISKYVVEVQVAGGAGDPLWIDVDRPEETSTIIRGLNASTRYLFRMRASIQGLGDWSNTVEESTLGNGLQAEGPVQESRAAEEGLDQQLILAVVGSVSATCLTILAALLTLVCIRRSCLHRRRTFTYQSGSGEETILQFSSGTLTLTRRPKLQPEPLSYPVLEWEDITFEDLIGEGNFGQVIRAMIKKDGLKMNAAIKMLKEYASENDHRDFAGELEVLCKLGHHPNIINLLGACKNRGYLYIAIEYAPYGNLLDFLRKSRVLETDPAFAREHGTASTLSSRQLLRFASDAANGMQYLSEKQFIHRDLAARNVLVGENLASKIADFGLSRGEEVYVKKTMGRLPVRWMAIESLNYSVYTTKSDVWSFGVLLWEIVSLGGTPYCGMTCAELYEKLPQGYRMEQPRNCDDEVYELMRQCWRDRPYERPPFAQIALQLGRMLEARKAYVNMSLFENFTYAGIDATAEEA

[3] = target: T1, kinases (KINOMEscan panel) (Homo sapiens, UniProt P29323); conditions: EPHB2; Published KINOMEscan; ref original PKIS2 published data; cited from earlier work
T1 sequence (P29323 19-1055): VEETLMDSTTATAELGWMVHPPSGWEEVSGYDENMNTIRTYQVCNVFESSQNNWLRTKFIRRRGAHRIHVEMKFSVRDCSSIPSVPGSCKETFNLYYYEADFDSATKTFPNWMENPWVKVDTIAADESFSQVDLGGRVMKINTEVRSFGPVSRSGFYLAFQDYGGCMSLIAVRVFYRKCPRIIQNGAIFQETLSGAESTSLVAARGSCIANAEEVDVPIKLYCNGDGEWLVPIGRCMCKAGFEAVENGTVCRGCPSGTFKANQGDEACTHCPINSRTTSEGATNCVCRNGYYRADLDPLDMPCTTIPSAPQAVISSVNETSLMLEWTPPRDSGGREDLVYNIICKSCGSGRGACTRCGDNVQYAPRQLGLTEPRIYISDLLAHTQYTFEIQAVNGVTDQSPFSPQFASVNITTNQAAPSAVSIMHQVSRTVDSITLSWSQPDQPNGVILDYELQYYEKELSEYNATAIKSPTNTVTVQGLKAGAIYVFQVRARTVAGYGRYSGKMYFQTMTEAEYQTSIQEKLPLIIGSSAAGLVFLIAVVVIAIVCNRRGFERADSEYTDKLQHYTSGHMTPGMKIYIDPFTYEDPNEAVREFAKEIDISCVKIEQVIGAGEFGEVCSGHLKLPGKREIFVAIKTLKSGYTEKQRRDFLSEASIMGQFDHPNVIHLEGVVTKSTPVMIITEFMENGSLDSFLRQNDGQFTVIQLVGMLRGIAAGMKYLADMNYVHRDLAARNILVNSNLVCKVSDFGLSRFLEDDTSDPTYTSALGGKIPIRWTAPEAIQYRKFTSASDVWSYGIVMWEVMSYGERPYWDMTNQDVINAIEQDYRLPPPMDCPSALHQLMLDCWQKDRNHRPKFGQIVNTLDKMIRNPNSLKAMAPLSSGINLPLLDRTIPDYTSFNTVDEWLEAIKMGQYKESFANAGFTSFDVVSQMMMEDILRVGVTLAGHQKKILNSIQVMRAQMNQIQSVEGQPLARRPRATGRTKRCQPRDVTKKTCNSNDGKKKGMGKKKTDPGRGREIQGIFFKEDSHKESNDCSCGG

[4] = target: T2, kinases (KINOMEscan panel) (Homo sapiens, UniProt O75747); conditions: Published KINOMEscan; ref original PKIS2 published data; cited from earlier work
T2 sequence (O75747 1-1486): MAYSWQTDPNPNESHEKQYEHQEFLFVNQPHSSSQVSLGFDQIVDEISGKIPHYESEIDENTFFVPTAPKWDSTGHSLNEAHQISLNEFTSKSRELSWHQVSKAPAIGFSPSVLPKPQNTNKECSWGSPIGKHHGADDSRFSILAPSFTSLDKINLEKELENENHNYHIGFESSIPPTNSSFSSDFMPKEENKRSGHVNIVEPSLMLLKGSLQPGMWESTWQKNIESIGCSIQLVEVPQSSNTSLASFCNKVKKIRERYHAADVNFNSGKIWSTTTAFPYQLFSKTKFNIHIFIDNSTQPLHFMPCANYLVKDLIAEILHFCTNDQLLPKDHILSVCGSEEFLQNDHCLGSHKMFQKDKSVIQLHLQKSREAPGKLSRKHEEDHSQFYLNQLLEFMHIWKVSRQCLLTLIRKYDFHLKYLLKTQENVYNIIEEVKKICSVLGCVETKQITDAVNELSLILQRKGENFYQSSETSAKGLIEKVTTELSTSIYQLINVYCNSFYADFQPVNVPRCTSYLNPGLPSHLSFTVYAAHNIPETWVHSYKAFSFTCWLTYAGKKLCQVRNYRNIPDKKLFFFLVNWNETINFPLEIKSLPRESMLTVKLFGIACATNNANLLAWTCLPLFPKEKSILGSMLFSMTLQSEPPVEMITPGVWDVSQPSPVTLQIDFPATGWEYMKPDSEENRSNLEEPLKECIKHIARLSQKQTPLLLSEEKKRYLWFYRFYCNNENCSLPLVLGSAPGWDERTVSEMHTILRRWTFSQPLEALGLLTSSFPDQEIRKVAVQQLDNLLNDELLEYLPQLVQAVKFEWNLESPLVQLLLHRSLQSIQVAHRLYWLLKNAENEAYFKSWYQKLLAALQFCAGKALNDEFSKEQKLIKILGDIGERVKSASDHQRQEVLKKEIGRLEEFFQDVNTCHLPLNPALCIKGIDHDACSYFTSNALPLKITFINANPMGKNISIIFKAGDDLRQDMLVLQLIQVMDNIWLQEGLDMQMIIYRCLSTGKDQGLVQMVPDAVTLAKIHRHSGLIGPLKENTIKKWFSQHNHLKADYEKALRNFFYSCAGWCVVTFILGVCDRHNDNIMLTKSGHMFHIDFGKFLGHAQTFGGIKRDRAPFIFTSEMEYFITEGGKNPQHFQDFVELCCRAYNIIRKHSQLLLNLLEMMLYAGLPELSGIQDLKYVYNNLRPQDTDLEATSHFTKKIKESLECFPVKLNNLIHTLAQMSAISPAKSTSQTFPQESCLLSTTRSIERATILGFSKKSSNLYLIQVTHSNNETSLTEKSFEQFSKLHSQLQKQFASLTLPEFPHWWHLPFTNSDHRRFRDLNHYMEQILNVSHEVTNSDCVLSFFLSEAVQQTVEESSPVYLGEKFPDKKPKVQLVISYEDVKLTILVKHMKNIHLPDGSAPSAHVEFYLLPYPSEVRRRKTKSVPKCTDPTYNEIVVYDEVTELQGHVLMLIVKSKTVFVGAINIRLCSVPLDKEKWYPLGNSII

Chain of kinases (KINOMEscan panel) (Homo sapiens, UniProt P14616) (P14616 27-1297): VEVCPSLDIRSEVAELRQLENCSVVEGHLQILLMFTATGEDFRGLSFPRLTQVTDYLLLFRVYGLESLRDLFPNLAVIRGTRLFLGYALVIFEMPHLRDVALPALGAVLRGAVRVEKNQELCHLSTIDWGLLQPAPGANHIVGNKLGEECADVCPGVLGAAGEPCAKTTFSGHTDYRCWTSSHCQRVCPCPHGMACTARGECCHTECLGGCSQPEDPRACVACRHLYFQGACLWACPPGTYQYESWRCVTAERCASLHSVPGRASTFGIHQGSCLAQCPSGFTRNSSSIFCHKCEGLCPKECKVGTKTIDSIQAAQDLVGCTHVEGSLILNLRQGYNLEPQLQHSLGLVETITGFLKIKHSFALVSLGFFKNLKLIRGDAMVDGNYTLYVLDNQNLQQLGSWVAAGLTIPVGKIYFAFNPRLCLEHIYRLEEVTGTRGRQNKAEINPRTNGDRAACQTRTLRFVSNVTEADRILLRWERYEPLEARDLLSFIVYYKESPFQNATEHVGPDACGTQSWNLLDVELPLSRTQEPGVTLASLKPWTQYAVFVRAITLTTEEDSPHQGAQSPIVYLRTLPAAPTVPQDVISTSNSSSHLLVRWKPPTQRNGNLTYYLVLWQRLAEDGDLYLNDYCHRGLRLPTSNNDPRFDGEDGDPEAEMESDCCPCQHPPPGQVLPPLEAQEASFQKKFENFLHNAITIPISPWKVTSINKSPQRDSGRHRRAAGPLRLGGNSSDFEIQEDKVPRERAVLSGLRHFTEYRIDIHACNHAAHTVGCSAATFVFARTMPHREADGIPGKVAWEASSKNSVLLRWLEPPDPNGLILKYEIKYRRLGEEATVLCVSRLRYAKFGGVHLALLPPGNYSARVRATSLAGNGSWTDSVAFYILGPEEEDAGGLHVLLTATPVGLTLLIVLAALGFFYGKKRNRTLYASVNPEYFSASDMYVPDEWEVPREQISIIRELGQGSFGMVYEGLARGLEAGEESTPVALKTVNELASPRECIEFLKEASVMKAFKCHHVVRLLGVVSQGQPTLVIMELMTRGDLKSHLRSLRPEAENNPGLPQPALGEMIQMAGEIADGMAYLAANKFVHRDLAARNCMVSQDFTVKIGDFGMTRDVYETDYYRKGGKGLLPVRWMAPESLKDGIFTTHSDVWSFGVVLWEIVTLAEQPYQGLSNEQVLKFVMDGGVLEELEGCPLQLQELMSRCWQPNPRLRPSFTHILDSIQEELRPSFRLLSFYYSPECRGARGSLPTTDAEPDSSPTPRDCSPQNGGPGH

## Cc1cccc(-c2nc(Nc3ccncc3)c3ccccc3n2)n1 [NK215]
[1]
  KINOMEscan INSRR: 0
[2]
  KINOMEscan TIE1: 20
[3]
  KINOMEscan EPHB2: 16
[4]
  KINOMEscan PIK3C2G: 0
